Measured values from patent US5843908A, “Pradimicins l and fl, and derivatives thereof” (Bristol-Myers Squibb Company, priority 1990, dated 1998).
Values after ≈ are worked out from the molar mass of the structure shown.

Legend:
Mucor spinosus IF05317 = assay: In vitro antifungal activity, serial agar dilution, Sabouraud dextrose agar (Table 4a); format: cell-based; settings: 10^6 CFU/ml, 40-60 hours at 28° C.
Protocol: (§1) Representative compounds of the present invention were tested in vitro against various fungi by serial agar dilution method in either Sabouraud dextrose agar or yeast morphology agar containing 1/15 M phosphate buffer. Thus, approximately 0.003 ml of fungal suspension containing 10^6 -10^7 cells/ml was applied to the surface of agar plates containing the test antibiotic. The minimum inhibitory concentration (MIC) values for the test compounds were recorded after the cultures had been incubated for 40-60 hours at 28° C.
(§2) Medium: Sabouraud dextrose agar

[1] = system: Blastomyces dermatitidis D40; assay: as above; format: cell-based; settings: 10^6 CFU/ml, 40-60 hours at 28° C.
Protocol: as §1, §2

[2] = system: Aspergillus fumigatus IAM2530; assay: as above; format: cell-based; settings: 10^6 CFU/ml, 40-60 hours at 28° C.
Protocol: as §1, §2

C. neoformans IAM4514 = assay: as above; format: cell-based; settings: Cryptococcus neoformans, 10^6 CFU/ml, 40-60 hours at 28° C.
Protocol: as §1, §2

T. mentagrophytes #4329 = assay: as above; format: cell-based; settings: Trichophyton mentagrophytes, 10^6 CFU/ml, 40-60 hours at 28° C.
Protocol: as §1, §2

Candida albicans IAM4888 = assay: as above; format: cell-based; settings: 10^6 CFU/ml, 40-60 hours at 28° C.
Protocol: as §1, §2

[3] = system: Trichophyton mentagrophytes D155; assay: as above; format: cell-based; settings: 10^6 CFU/ml, 40-60 hours at 28° C.
Protocol: as §1, §2

C. albicans A9540 = assay: as above; format: cell-based; settings: Candida albicans, 10^6 CFU/ml, 40-60 hours at 28° C.
Protocol: as §1, §2

[4] = system: Fusarium moniliforme A2284; assay: as above; format: cell-based; settings: Fusarium verticillioides, 10^6 CFU/ml, 40-60 hours at 28° C.
Protocol: as §1, §2

A. fumigatus IAM2034 = assay: as above; format: cell-based; settings: Aspergillus fumigatus, 10^6 CFU/ml, 40-60 hours at 28° C.
Protocol: as §1, §2

[5] = system: Petriellidium boydii IF08078; assay: as above; format: cell-based; settings: Scedosporium boydii, 10^6 CFU/ml, 40-60 hours at 28° C.
Protocol: as §1, §2

[6] = system: Cryptococcus neoformans D49; assay: as above; format: cell-based; settings: 10^6 CFU/ml, 40-60 hours at 28° C.
Protocol: as §1, §2

[7] = system: Sporothrix schenckii IF08158; assay: as above; format: cell-based; settings: 10^6 CFU/ml, 40-60 hours at 28° C.
Protocol: as §1, §2

[8] = system: Candida albicans ATCC 38247 (polyene-R); assay: In vitro antifungal activity, serial agar dilution, yeast morphology agar (Table 4b); format: cell-based; settings: ATCC38247, 60 h
Protocol: as §1
(§3) ^1. Determined after incubation for 40 hours at 28° C.
(§4) (Trichophyton mentagrophytes: 60 hours, 28° C.).
(§5) ^2. Inoculum size 10^6 cells/ml (Trichophyton mentagrophytes:
(§6) 10^7 cells/ml) in yeast morphology agar containing 1/15 M phosphate

[9] = system: Aspergillus fumigatus IAM 2034; assay: In vitro antifungal activity, serial agar dilution, yeast morphology agar (Tables 4b, 4c); format: cell-based; settings: IAM2034, 60 h, 1/15 M phosphate buffer, 10^6 cells/ml, 40 hours at 28° C.
Protocol: as §1, §3, §4, §5, §6
(§7) (Trichophyton mentaprophytes: 60 hours, 28° C.).

[10] = system: Trichophyton mentagrophytes #4329; assay: as above; format: cell-based; settings: 1/15 M phosphate buffer, 10^7 cells/ml, 60 hours, 28° C.
Protocol: as §1, §3, §4, §5, §6, §7

[11] = system: Candida albicans ATCC 32354 (B311); assay: as above; format: cell-based; settings: ATCC32354, 60 h, 1/15 M phosphate buffer, 10^6 cells/ml, 40 hours at 28° C.
Protocol: as §1, §3, §4, §5, §6, §7

[12] = system: Candida tropicalis 85-8 (Kitasato); assay: as above; format: cell-based; settings: 60 h, 1/15 M phosphate buffer, 10^6 cells/ml, 40 hours at 28° C.
Protocol: as §1, §3, §4, §5, §6, §7

Candida albicans A9540 = assay: as above; format: cell-based; settings: 60 h, 1/15 M phosphate buffer, 10^6 cells/ml, 40 hours at 28° C.
Protocol: as §1, §3, §4, §5, §6, §7

[13] = system: Saccharomyces cerevisiae ATCC 9763; assay: as above; format: cell-based; settings: ATCC9763, 60 h, 1/15 M phosphate buffer, 10^6 cells/ml, 40 hours at 28° C.
Protocol: as §1, §3, §4, §5, §6, §7

[14] = system: Cryptococcus neoformans D49; assay: as above; format: cell-based; settings: 60 h, 1/15 M phosphate buffer, 10^6 cells/ml, 40 hours at 28° C.
Protocol: as §1, §3, §4, §5, §6, §7

[15] = system: Candida albicans 83-2-14 (Juntendo); assay: as above; format: cell-based; settings: 60 h, 1/15 M phosphate buffer, 10^6 cells/ml, 40 hours at 28° C.
Protocol: as §1, §3, §4, §5, §6, §7

[16] = system: Candida tropicalis IAM 10241; assay: as above; format: cell-based; settings: IAM10241, 60 h, Candida tropicalis IAM 10241 ("IAN 10241" in Table 4b), 1/15 M phosphate buffer, 10^6 cells/ml, 40 hours at 28° C.
Protocol: as §1, §3, §4, §5, §6, §7

[17] = system: Cryptococcus neoformans IAM 4514; assay: as above; format: cell-based; settings: IAM4514, 60 h, 1/15 M phosphate buffer, 10^6 cells/ml, 40 hours at 28° C.
Protocol: as §1, §3, §4, §5, §6, §7

Solubility = format: physicochemical

Row | SMILES | MIC (Mucor spinosus IF05317) [µg/mL] | MIC [1] [µg/mL] | MIC [2] [µg/mL] | MIC (C. neoformans IAM4514) [µg/mL] | MIC (T. mentagrophytes #4329) [µg/mL] | MIC (Candida albicans IAM4888) [µg/mL] | MIC [3] [µg/mL] | MIC (C. albicans A9540) [µg/mL] | MIC [4] [µg/mL] | MIC (A. fumigatus IAM2034) [µg/mL] | MIC [9] [µg/mL] | MIC [10] [µg/mL] | MIC [11] [µg/mL] | MIC [12] [µg/mL] | MIC (Candida albicans A9540) [µg/mL] | MIC [13] [µg/mL] | MIC [14] [µg/mL] | MIC [15] [µg/mL] | MIC [16] [µg/mL] | MIC [17] [µg/mL] | also measured
1 | CN[C@@H]1[C@H](O[C@@H]2OC[C@@H](O)[C@H](O)[C@H]2O)[C@@H](O)[C@H](O[C@H]2c3cc(C)c(C(=O)N[C@H](C)C(=O)O)c(O)c3-c3c(cc4c(c3O)C(=O)c3cc(OC)cc(O)c3C4=O)[C@@H]2O)O[C@@H]1C [Pradimicin A, pradimicin A, reference compound] | > 100 | 6.3 (≈ 7.49 µM) | 1.6 (≈ 1.9 µM) | 1.6 (≈ 1.9 µM) | 6.3 (≈ 7.49 µM) | 6.3 (≈ 7.49 µM) | 1.6 (≈ 1.9 µM) | 100 (≈ 119 µM) | 6.3 (≈ 7.49 µM) | 3.1 (≈ 3.69 µM) | 1.6 (≈ 1.9 µM) | 3.1 (≈ 3.69 µM) | 6.3 (≈ 7.49 µM) | 12.5 (≈ 14.9 µM) | 12.5 (≈ 14.9 µM) | 6.3 (≈ 7.49 µM) | 1.6 (≈ 1.9 µM) | 12.5 (≈ 14.9 µM) | > 100 | 1.6 (≈ 1.9 µM) | MIC [5]: 6.3 µg/mL (≈ 7.49 µM); MIC [6]: 1.6 µg/mL (≈ 1.9 µM); MIC [7]: 1.6 µg/mL (≈ 1.9 µM); MIC [8]: 6.3 µg/mL (≈ 7.49 µM)
2 | COc1cc(O)c2c(c1)C(=O)c1c(cc3c(c1O)-c1c(cc(C)c(C(=O)N[C@H](C)C(=O)O)c1O)[C@H](O[C@@H]1O[C@H](C)[C@H](N(C)C)[C@H](O[C@@H]4O[C@H](CO)[C@@H](O)[C@H](O)[C@H]4O)[C@H]1O)[C@H]3O)C2=O [N-Methyl Pradimicin L] | > 100 | 6.3 (≈ 7.12 µM) | 6.3 (≈ 7.12 µM) | 6.3 (≈ 7.12 µM) | 25 (≈ 28.3 µM) | 12.5 (≈ 14.1 µM) | 25 (≈ 28.3 µM) | 12.5 (≈ 14.1 µM) | 12.5 (≈ 14.1 µM) | 6.3 (≈ 7.12 µM) | – | – | – | – | – | – | – | – | – | – | MIC [5]: 25 µg/mL (≈ 28.3 µM); MIC [6]: 6.3 µg/mL (≈ 7.12 µM); MIC [7]: 1.6 µg/mL (≈ 1.81 µM)
3 | CN[C@@H]1[C@H](O[C@@H]2O[C@H](CO)[C@@H](O)[C@H](O)[C@H]2O)[C@@H](O)[C@H](O[C@H]2c3cc(C)c(C(=O)N[C@H](C)C(=O)O)c(O)c3-c3c(cc4c(c3O)C(=O)c3cc(OC)cc(O)c3C4=O)[C@@H]2O)O[C@@H]1C [Pradimicin L, pradimicin L] | > 100 | 3.1 (≈ 3.56 µM) | 3.1 (≈ 3.56 µM) | 0.8 (≈ 0.919 µM) | 12.5 (≈ 14.4 µM) | 6.3 (≈ 7.23 µM) | 6.3 (≈ 7.23 µM) | 12.5 (≈ 14.4 µM) | 6.3 (≈ 7.23 µM) | 3.1 (≈ 3.56 µM) | 3.1 (≈ 3.56 µM) | 3.1 (≈ 3.56 µM) | 6.3 (≈ 7.23 µM) | > 100 | 25 (≈ 28.7 µM) | 6.3 (≈ 7.23 µM) | 1.6 (≈ 1.84 µM) | 100 (≈ 115 µM) | 100 (≈ 115 µM) | 0.8 (≈ 0.919 µM) | MIC [5]: 25 µg/mL (≈ 28.7 µM); MIC [6]: 0.8 µg/mL (≈ 0.919 µM); MIC [7]: 0.8 µg/mL (≈ 0.919 µM); MIC [8]: 3.1 µg/mL (≈ 3.56 µM); Solubility (Solubility; dimethyl sulfoxide, dimethyl-formamide, acidic or alkaline water): Soluble in dimethyl sulfoxide, dimethyl-formamide, and acidic or alkaline water; Solubility (Solubility; ethanol, methanol, and water): slightly soluble in ethanol, methanol, and water
4 | COc1cc(O)c2c(c1)C(=O)c1c(cc3c(c1O)-c1c(cc(C)c(C(=O)N[C@H](CO)C(=O)O)c1O)[C@H](O[C@@H]1O[C@H](C)[C@H](N(C)C)[C@H](O[C@@H]4O[C@H](CO)[C@@H](O)[C@H](O)[C@H]4O)[C@H]1O)[C@H]3O)C2=O [N-Methyl Pradimicin FL] | – | – | – | – | – | – | – | – | – | – | 6.3 (≈ 6.99 µM) | 6.3 (≈ 6.99 µM) | 6.3 (≈ 6.99 µM) | 12.5 (≈ 13.9 µM) | 6.3 (≈ 6.99 µM) | 3.1 (≈ 3.44 µM) | 6.3 (≈ 6.99 µM) | 6.3 (≈ 6.99 µM) | 12.5 (≈ 13.9 µM) | 6.3 (≈ 6.99 µM) | –
5 | CN[C@@H]1[C@H](O[C@@H]2O[C@H](CO)[C@@H](O)[C@H](O)[C@H]2O)[C@@H](O)[C@H](O[C@H]2c3cc(C)c(C(=O)N[C@H](CO)C(=O)O)c(O)c3-c3c(cc4c(c3O)C(=O)c3cc(OC)cc(O)c3C4=O)[C@@H]2O)O[C@@H]1C [Pradimicin FL, pradimicin FL] | – | – | – | – | – | – | – | – | – | – | 3.1 (≈ 3.5 µM) | 3.1 (≈ 3.5 µM) | 6.3 (≈ 7.1 µM) | 6.3 (≈ 7.1 µM) | 6.3 (≈ 7.1 µM) | 3.1 (≈ 3.5 µM) | 3.1 (≈ 3.5 µM) | 6.3 (≈ 7.1 µM) | 6.3 (≈ 7.1 µM) | 1.6 (≈ 1.8 µM) | MIC [8]: 3.1 µg/mL (≈ 3.5 µM)
